Patent US9839642B2, “Beta-tetrazolyl-propionic acids as metallo-beta-lactamase inhibitors” (priority 2014, dated 2017)
pIC50: −log10 of the molar value. Read-outs that look alike come from different tables or passages of the source.

Legend:
NDM-1 = NDM-1 (Klebsiella pneumoniae, UniProt C7C422); experiment: Enzyme activity: determination of IC50, fluorescence assay with CCF2-FA substrate; type: biochemical; settings: CCF2-FA 1.25 μM, 2 hours at 25° C., read-out: NDM1 IC50
Procedure, shortened: (§1)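 Final enzyme levels differed by target: 1 pM NDM-1, 2 pM IMP-1, 30 pM VIM-1. Each was incubated 2 hours at 25° C with test compound and 1.25 μM CCF2-FA, and 460 nm fluorescence (405 nm excitation) was fitted by 4-parameter curve to obtain IC50.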

VIM-1 = VIM-1 (Pseudomonas aeruginosa, UniProt A0A0F7KYQ8); experiment: as above; type: biochemical; settings: CCF2-FA 1.25 μM, 2 hours at 25° C., read-out: VIM1 IC50
Procedure, shortened: as §1

IMP-1 = IMP-1 (Serratia marcescens, UniProt P52699); experiment: as above; type: biochemical; settings: CCF2-FA 1.25 μM, 2 hours at 25° C., read-out: IMP1 IC50
Chain of IMP-1 (P52699 19-246, looked up, species assumed): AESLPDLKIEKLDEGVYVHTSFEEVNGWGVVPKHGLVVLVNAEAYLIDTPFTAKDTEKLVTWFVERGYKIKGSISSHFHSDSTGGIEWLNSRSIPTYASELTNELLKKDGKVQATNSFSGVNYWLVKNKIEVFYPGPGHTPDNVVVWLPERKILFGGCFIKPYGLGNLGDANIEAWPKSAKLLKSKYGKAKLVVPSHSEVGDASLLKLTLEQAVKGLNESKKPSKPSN
Procedure, shortened: as §1

[1] = tested on: Serratia marcescens expressing IMP-1 (CL5741); experiment: Antibiotic potentiation activity: synergistic concentration (MITC95) with imipenem, growth by OD600; type: cell-based
Procedure, shortened: (§2)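 Colonies from overnight agar plates (35 °C) were suspended in saline and diluted 1:100 into 1.1× CAMHB. Inhibitor (final 200 μM to 0.195 μM) was combined with imipenem at 1 or 4 μg/ml, incubated 22–24 h at 35 °C, and absorbance read; MITC95 is the lowest inhibitor concentration giving 95% growth inhibition.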

[2] = tested on: Escherichia coli expressing NDM-1 (CLB30016); experiment: as above; type: cell-based
Procedure, shortened: as §2

[3] = tested on: Klebsiella pneumoniae expressing VIM-1 (IHMA599644); experiment: as above; type: cell-based
Procedure, shortened: as §2

[4] = 95% inhibition of bacterial growth, strain CL5741
[5] = 95% inhibition of bacterial growth, strain CLB30016
[6] = 95% inhibition of bacterial growth, strain IHMA599644
[7] = S. marcescens CL5741 (IMP-1), 95% inhibition of growth
[8] = E. coli CLB30016 (NDM-1), 95% inhibition of growth
[9] = K. pneumoniae IHMA599644 (VIM-1), 95% inhibition of growth

Chain of NDM-1 (C7C422 29-270, looked up, species assumed): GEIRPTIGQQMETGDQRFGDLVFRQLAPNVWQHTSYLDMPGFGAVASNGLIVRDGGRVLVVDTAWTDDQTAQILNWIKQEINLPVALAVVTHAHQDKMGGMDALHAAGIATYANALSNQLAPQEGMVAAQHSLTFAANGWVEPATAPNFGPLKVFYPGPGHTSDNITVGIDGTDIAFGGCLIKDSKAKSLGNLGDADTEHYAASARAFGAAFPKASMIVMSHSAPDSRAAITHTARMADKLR

| SMILES | pIC50 (NDM-1; enzyme 1 pM) | pIC50 (VIM-1; enzyme 30 pM) | pIC50 (IMP-1; enzyme 2 pM) | IMP1 SM5741 MITC95 [1, 4] | NDM1 EC30016 MITC95 [2, 5] | VIM1 KP599644 MITC95 [3, 6] | pIC50 (NDM-1; NDM-1 enzyme 1 pM) | pIC50 (VIM-1; VIM-1 enzyme 30 pM) | pIC50 (IMP-1; IMP-1 enzyme 2 pM) | IMP1 SM5741 MITC95 [1, 7] | NDM1 EC30016 MITC95 [2, 8] | VIM1 KP599644 MITC95 [3, 9] |
| --- | --- | --- | --- | --- | --- | --- | --- | --- | --- | --- | --- | --- |
| CCC[C@H](C(=O)O)[C@H](Cc1ccc(NCCN2CCCC(O)C2)cc1)c1nn[nH]n1 (stereo partly drawn) [Example 220, (2S)-2-[(1S)-2-(4-{[2-(3-hydroxypiperidin-1-yl)ethyl]amino}phenyl)-1-(2H-tetrazol-5-yl)ethyl]pentanoic acid] | 6.44 | 7.12 | 5.80 | 50 µM | 25 µM | 50 µM |  |  |  |  |  |  |
| CCC[C@H](C(=O)O)[C@H](Cc1ccc(F)cc1)c1nnn[nH]1 [Example 261, (2S)-2-[(1S)-2-(4-fluorophenyl)-1-(1H-tetrazol-5-yl)ethyl]pentanoic acid] |  |  |  |  |  |  | 6.96 | 8.42 | 6.04 | 12.5 µM | 9.4 µM | 12.5 µM |
| CC(C)C[C@H](C(=O)O)[C@H](Cc1ccc(COCCN2CCNCC2)c(F)c1)c1nn[nH]n1.O=C(O)C(F)(F)F [Example 441, 5-((2S,3S)-3-carboxy-1-(3-fluoro-4-((2-(piperazin-1-yl)ethoxy)methyl)phenyl)-5-methylhexan-2-yl)-4422H-tetrazol-3-ium 2,2,2-trifluoroacetate] |  |  |  |  |  |  | 6.95 | 7.71 | 6.67 | 18.75 µM | 25 µM | 50 µM |
| CNC(=O)C1CCN(c2ccc(C[C@H](c3nnn[nH]3)[C@H](CC(C)C)C(=O)O)cn2)C1 (stereo partly drawn) [Example 305, (2S)-4-methyl-2-[(1S)-2-{6-[3-(methylcarbamoyl)pyrrolidin-1-yl]pyridin-3-yl}-1-(1H-tetrazol-5-yl)ethyl]pentanoic acid] |  |  |  |  |  |  | 6.92 | 7.92 | 6.60 | 6.2 µM | 2.3 µM | 25 µM |
| CC(C)(C)C(C(=O)O)[C@H](Cc1ccc(C2CCNC2)nc1)c1nnn[nH]1.O=C(O)C(F)(F)F (stereo partly drawn) [Example 430, 3-(5-((2S)-3-carboxy-4,4-dimethyl-2-(1H-tetrazol-5-yl)pentyl)pyridin-2-yl)pyrrolidin-1-ium 2,2,2-trifluoroacetate] |  |  |  |  |  |  | 6.21 | 7.28 | 6.26 | 25 µM | 12.5 µM | 25 µM |
| CC(C)C[C@H](C(=O)O)[C@H](Cc1ccc2cc(NCCO)cnc2c1)c1nnn[nH]1 [Example 133, (S)-2-((S)-2-(3-((2-hydroxyethyl)amino)quinolin-7-yl)-1-(1H-tetrazol-5-yl)ethyl)-4-methylpentanoic acid] | 7.92 | 8.80 | 7.10 | 6.2 µM | 25 µM | 75 µM |  |  |  |  |  |  |
| CCC[C@H](C(=O)O)[C@H](CCc1ccc(N)nc1)c1nnn[nH]1 [Example 405, (2S,3S)-5-(6-aminopyridin-3-yl)-2-propyl-3-(1H-tetrazol-5-yl)pentanoic acid] |  |  |  |  |  |  | 5.55 | 7.40 | 4.83 | 200 µM | 12.5 µM | 12.5 µM |
| CC(C)C[C@H](C(=O)O)[C@H](Cc1ccc(N2CC3(CCNC3)C2)nc1)c1nnn[nH]1 [Example 336, (2S)-2-[(1S)-2-[6-(2,6-diazaspiro[3.4]oct-2-yl)pyridin-3-yl]-1-(1H-tetrazol-5-yl)ethyl]-4-methylpentanoic acid] |  |  |  |  |  |  | 6.74 | 7.70 | 5.92 | 25 µM | 3.1 µM | 25 µM |
| CCC[C@H](C(=O)O)[C@H](Cc1ccc(C)cc1)c1nn[nH]n1 [Example 52, (S)-2-((S)-1-(2H-tetrazol-5-yl)-2-(p-tolyl)ethyl)pentanoic acid] | 7.06 | 8.00 | 6.17 | 18.8 µM | 18.8 µM | 25 µM |  |  |  |  |  |  |
| CC(C)C[C@H](C(=O)O)[C@H](Cc1ccc(C2=CCCNC2)c(F)c1)c1nn[nH]n1 [Example 450, 5-(4-((2S,3S)-3-carboxy-5-methyl-2-(2H-tetrazol-5-yl)hexyl)-2-fluorophenyl)-1,2,3,6-tetrahydropyridin-1-ium 2,2,2-trifluoroacetate] |  |  |  |  |  |  | 7.05 | 8.66 | 6.86 | 6.25 µM | 7.813 µM | 18.75 µM |
| CCC[C@H](C(=O)O)[C@H](Cc1cnc(N)s1)c1nnn[nH]1 [Example 115, (2S)-2-[(1S)-2-(2-amino-1,3-thiazol-5-yl)-1-(1H-tetrazol-5-yl)ethyl]pentanoic acid] | 6.77 | 8.19 | 5.82 | 25 µM | 0.78 µM | 9.4 µM |  |  |  |  |  |  |
| CC(C)C[C@H](C(=O)O)[C@H](Cc1ccc(-c2ccc([C@@H]3OC(=O)N[C@@H]3C)cc2)cn1)c1nn[nH]n1 [Example 173, (2S)-4-methyl-2-[(1S)-2-(5-{4-[(4R,5S)-4-methyl-2-oxo-1,3-oxazolidin-5-yl]phenyl}pyridin-2-yl)-1-(2H-tetrazol-5-yl)ethyl]pentanoic acid] | 7.57 | 6.96 | 6.30 | 31 µM | 25 µM | >200 µM |  |  |  |  |  |  |
| CCC[C@H](C(=O)O)[C@H](Cc1cccc(N2CCC[C@H](N)C2)c1)c1nn[nH]n1 [Example 366, (2S)-2-[(1S)-2-{3-[(3S)-3-aminopiperidin-1-yl]phenyl}-1-(2H-tetrazol-5-yl)ethyl]pentanoic acid] |  |  |  |  |  |  | 6.06 | 7.89 | 5.07 | 150 µM | 50 µM | 25 µM |
| Cc1cc(C[C@H](c2nnn[nH]2)[C@@H](C(=O)O)C(C)C)ccc1C1=CCNC1 [Example 68, (2S,3S)-4-(4-(2,5-dihydro-1H-pyrrol-3-yl)-3-methylphenyl)-2-isopropyl-3-(1H-tetrazol-5-yl)butanoic acid] | 7.62 | 9.10 | 5.96 | 12.5 µM | 4.7 µM | 6.2 µM |  |  |  |  |  |  |
| CC(C)C[C@H](C(=O)O)[C@H](Cc1ccc(N2CCC(CN)C2)nc1)c1nnn[nH]1 (stereo partly drawn) [Example 306, (2S)-2-[(1S)-2-{6-[3-(aminomethyl)pyrrolidin-1-yl]pyridin-3-yl}-1-(1H-tetrazol-5-yl)ethyl]-4-methylpentanoic acid] |  |  |  |  |  |  | 6.17 | 7.89 | 5.57 | 25 µM | 3.1 µM | 12.5 µM |
| CCC[C@H](C(=O)O)[C@H](Cc1ccc(-c2ccc(-c3nn[nH]n3)cc2)nc1)c1nn[nH]n1 [Example 97, (S)-2-((S)-2-(6-(4-(2H-tetrazol-5-yl)phenyl)pyridin-3-yl)-1-(1H-tetrazol-5-yl)ethyl)pentanoic acid] | 8.92 | 8.23 | 6.42 | 31 µM | 100 µM | 200 µM |  |  |  |  |  |  |
| CC(C)C[C@H](C(=O)O)[C@H](Cc1ccc(N2CCC(O)C2)nc1)c1nnn[nH]1 (stereo partly drawn) [Example 313, (2S)-2-[(1S)-2-[6-(3-hydroxypyrrolidin-1-yl)pyridin-3-yl]-1-(1H-tetrazol-5-yl)ethyl]-4-methylpentanoic acid] |  |  |  |  |  |  | 7.12 | 8.42 | 6.44 | 12.5 µM | 1.6 µM | 12.5 µM |
| CC(C)[C@H](C(=O)O)[C@H](Cc1cccc(Br)n1)c1nnn[nH]1 [Example 92] | 6.96 | 7.55 | 5.26 | 100 µM | 9.4 µM | 25 µM |  |  |  |  |  |  |
| CC(C)C[C@H](C(=O)O)[C@H](Cc1ccc(CCCN)c(F)c1)c1nn[nH]n1.O=C(O)C(F)(F)F [Example 440, 5-((2S,3S)-1-(4-(3-aminopropyl)-3-fluorophenyl)-3-carboxy-5-methylhexan-2-yl)-2H-tetrazol-3-ium 2,2,2-trifluoroacetate] |  |  |  |  |  |  | 7.43 | 8.79 | 6.91 | 6.25 µM | 6.25 µM | 12.5 µM |
